# Results from BindingDB's records for doi:10.1016/j.bmcl.2003.08.040 (Toa Eiyo, 2003).
# Molecular target: Chymotrypsinogen A (Bos taurus) (UniProt P00766)
# Test: In vitro inhibitory activity against bovin chymotrypsin
row,IC50,SMILES
1,> 10 µM,COC(=O)c1ccc(NS(=O)(=O)c2sc3ccc(Cl)cc3c2C)c(S(C)(=O)=O)c1 [4-(5-Chloro-3-methyl-benzo[b]thiophene-2-sulfonylamino)-3-methanesulfonyl-benzoic acid methyl ester]
2,> 10 µM,COC(=O)c1ccc(NS(=O)(=O)c2sc3ccc(F)cc3c2C)c(S(C)(=O)=O)c1 [4-(5-Fluoro-3-methyl-benzo[b]thiophene-2-sulfonylamino)-3-methanesulfonyl-benzoic acid methyl ester]
3,> 10 µM,CC(=O)c1ccc(NS(=O)(=O)c2sc3ccc(F)cc3c2C)c(S(C)(=O)=O)c1 [5-Fluoro-3-methyl-benzo[b]thiophene-2-sulfonic acid (4-acetyl-2-methanesulfonyl-phenyl)-amide]
